Results as given in patent US8252832B2, “Kinesin inhibitors as cancer therapeutics” (Novartis AG, priority 2007, dated 2012).

Columns and labels:
Assay type in all cases: cell-based
HT29 = experiment: LDH release assay; conditions: Homo sapiens, HT-29
Source text: Identification of tumor types that are the most sensitive to the KSP inhibitors of the present invention can be accomplished using an unbiased approach that uses several cell-based assays. The assays chosen were as follows: • CellTiter-Glo®. This is an assay designed to measure ATP concentration in a cell culture, and can be correlated to cell number. Briefly CellTiter-Glo® (Promega Corporation) is a homogeneous method using the single CellTiter-Glo® reagent to detect ATP wherein ATP in the assay drives the activity of a thermostable luciferase to create a luminescent signal which can then be measured and correlated with the number of viable cells. Briefly, for adherent cells, 1,000 to 5,000 cells/well were plated in 96-well plates (100 μl/well) and let to adhere for 24 hours before being treated with drug. For non-adherent cells, 1,000 to 10,000 cells/well were plated in 96-well plates (100 μl/well) and immediately treated with drug. Drug dilutions were prepared in DMSO at 1000 times the final concentration. These dilutions were then diluted 1/100 in growth media before being added to the cells (11 μl/well) to achieve the desired final concentration. After 48 h in a 37° C. tissue culture incubator, the plates were processed for the CellTiter-Glo®assay according to the manufacturer's instructions. Protocol for a 72 hour cell proliferation assay: The 72 hour assay was performed the same way as the 48 hour assay except for the following modifications: For adherent cells, 500 to 5,000 cells/well were plated in 96-well plates (90 μl/well cell growth media) and left to adhere for 24 hours before being treated with drug. For non-adherent cells, 1,000 to 10,000 cells/well were plated in 96-well plates (90 μl/well cell growth media) and immediately treated with drug. Data values presented represent the concentration of test compound required for a 50% reduction in growth. • LDH release. The Cytotoxicity Detection KitPLUS (LDH) assay (Roche Diagnostics, Manheim, Germany) measures the amount of LDH released in the media by dying cells; LDH catalyzes the conversion of lactate into pyruvate. The enzymatic reaction is coupled to a chemical reaction that uses a tetrazolium salt to form a formazan that is red and can be detected by its absorbance at 490 nm. This assay measures the amount of cell death after drug treatment. Cells were plated at 10,000 cells/well in 96-well plates (100 μl/well). Adherent cells were let to adhere for 24 hours before being treated with drug, whereas non-adherent cells were immediately treated with drug. Drug dilutions were prepared in DMSO at 1000 times the final concentration. These dilutions were then diluted 1/100 in growth media before being added to the cells (11 μl/well) to achieve the desired final concentration. […] The media only values were subtracted from all the data points before analysis. Data values presented correspond to the compound concentration wherein LDH output is at half maximal level. • Caspase-Glo® 3/7. The Caspase-Glo® 3/7 Assay (Promega Corporation) is a homogeneous luminescent assay that measures caspase-3/7 activities. The assay provides a proluminescent caspase-3/7 DEVD-aminoluciferin substrate and a thermostable luciferase in a reagent optimized for caspase-3/7 activity, luciferase activity and cell lysis. Adding the single Caspase-Glo® 3/7 Reagent results in cell lysis, followed by caspase cleavage of the substrate. This liberates free aminoluciferin, which is consumed by the luciferase, generating a luminescent signal. The signal is proportional to caspase-3/7 activity. Data values presented correspond to the compound concentration wherein caspase 3/7 activity is at half maximal level.

AGS = experiment: CellTiter-Glo proliferation, 72 hours; conditions: Homo sapiens, Gastric
Source text: (§1) Cell lines used were as follows: HCT-116 (National Cancer Institute's DCTF Tumor Repository, catalog #NCI-502568, Rockville, Md.), HCT-15 (National Cancer Institute's DCTF Tumor Repository, catalog#NCI-502711, Rockville, Md. available from American Type Tissue Collection, catalog #CLL-225), KB-3-1 (available from DSMZ, Deutsche Sammlung von Mikroorganismen und Zellkulturen GmbH (German Collection of Microorganisms and Cell Cultures—catalog number ACC 158), KB-V1 (available from DSMZ—catalog number ACC 149), AGS (available from American Type Culture Collection, Manassas Va., catalog number CRL-1739™), N87 (available from American Type Culture Collection, Manassas Va., catalog number CRL-5822), Hel92.1.7 (available from American Type Culture Collection, Manassas Va., catalog number TIB 180), K562 (available from American Type Culture Collection, Manassas Va., catalog number CRL-243™), MV4; 11 (American Tissue Culture Collection, Manassas Va., catalog number CRL-9591) and U937 (available from American Type Culture Collection, Manassas Va., catalog number CRL-1593.2).
(§2) Cells were plated in 96-well plates at densities of about 500 cells per well of a 96-well plate and allowed to grow for 24 hours. The cells were then treated with various concentrations of compounds for 72 hours. Then, 100 μl of CellTiter-Glo® reagent was added (Promega Corporation). CellTiter-Glo® is used in a homogeneous method of determining the number of viable cells using the single CellTiter-Glo® reagent to detect ATP (U.S. Pat. Nos. 6,602,677 and 7,241,584) (see Promega product catalog #G7570). Following the addition of the CellTiter-Glo® reagent, the cells were incubated in the dark for 30 minutes. The amount of luminescence was determined for each well using a Wallac Trilux plate reader, which correlates with the number of cells per well. The number of viable cells in the wells that receive only DMSO (0.5%) served as an indication of 0% inhibition, while wells without cells served as 100% inhibition of cell growth. […] This broad activity is consistent with a compound that is a mitotic inhibitor.

K562 = experiment: CellTiter-Glo proliferation, 72 hours; conditions: Homo sapiens; Leukemia, K562, 72 hours
Source text: as §1, §2

Hel92.1.7 = experiment: CellTiter-Glo proliferation, 72 hours; conditions: Homo sapiens, HEL 92.1.7; Leukemia, Hel92.1.7, 72 hours
Source text: as §1, §2

U937 = experiment: CellTiter-Glo proliferation, 72 hours; conditions: Homo sapiens, U-937; Leukemia, U937, 72 hours
Source text: as §1, §2

KBV1 = experiment: CellTiter-Glo proliferation, 72 hours; conditions: Homo sapiens, KB-V1; Epidermoid, KBV1, 72 hours
Source text: as §1, §2

HCT-116 = experiment: CellTiter-Glo proliferation, 72 hours; conditions: Homo sapiens; Colon, HCT-116, 72 hours
Source text: as §1, §2

HCT-15 = experiment: CellTiter-Glo proliferation, 72 hours; conditions: Homo sapiens; Colon, HCT-15, 72 hours
Source text: as §1, §2

N87 = experiment: CellTiter-Glo proliferation, 72 hours; conditions: Gastric, N87, 72 hours
Source text: as §1, §2

MV4-11 = experiment: CellTiter-Glo proliferation, 72 hours; conditions: Homo sapiens; Leukemia, MV4-11, 72 hours
Source text: as §1, §2

KB3.1 = experiment: CellTiter-Glo proliferation, 72 hours; conditions: Homo sapiens, KB 3-1; Epidermoid, KB3.1, 72 hours
Source text: as §1, §2

CC(C)(C)[C@H](c1nc(-c2cc(F)ccc2F)cn1Cc1ccccc1)N(CC[C@H](N)CF)C(=O)CO [Compound IIa]
EC50 (HT29; HT29, 48 h): 0.35 nM | EC50 (HT29; HT29, 72 h): 0.27 nM | GI50 (AGS): 0.2 nM | GI50 (K562): 0.1 nM | GI50 (Hel92.1.7): 0.5 nM | GI50 (U937): 0.1 nM | GI50 (KBV1): 6.5 nM | GI50 (HCT-116): 0.1 nM | GI50 (HCT-15): 0.3 nM | GI50 (N87): 1 nM | GI50 (MV4-11): 0.2 nM | GI50 (KB3.1): 0.6 nM
